Experimental data from patent US9783552B2, “Soluble guanylate cyclase activators” (MERCK SHARP & DOHME CORP., priority 2013, dated 2017).

Target: T1, sGC α1/β1 heterodimer (Homo sapiens, UniProt Q02108+Q02153)
T1 construct: expressed in transfected cells
T1 sequence (Q02108 1-690): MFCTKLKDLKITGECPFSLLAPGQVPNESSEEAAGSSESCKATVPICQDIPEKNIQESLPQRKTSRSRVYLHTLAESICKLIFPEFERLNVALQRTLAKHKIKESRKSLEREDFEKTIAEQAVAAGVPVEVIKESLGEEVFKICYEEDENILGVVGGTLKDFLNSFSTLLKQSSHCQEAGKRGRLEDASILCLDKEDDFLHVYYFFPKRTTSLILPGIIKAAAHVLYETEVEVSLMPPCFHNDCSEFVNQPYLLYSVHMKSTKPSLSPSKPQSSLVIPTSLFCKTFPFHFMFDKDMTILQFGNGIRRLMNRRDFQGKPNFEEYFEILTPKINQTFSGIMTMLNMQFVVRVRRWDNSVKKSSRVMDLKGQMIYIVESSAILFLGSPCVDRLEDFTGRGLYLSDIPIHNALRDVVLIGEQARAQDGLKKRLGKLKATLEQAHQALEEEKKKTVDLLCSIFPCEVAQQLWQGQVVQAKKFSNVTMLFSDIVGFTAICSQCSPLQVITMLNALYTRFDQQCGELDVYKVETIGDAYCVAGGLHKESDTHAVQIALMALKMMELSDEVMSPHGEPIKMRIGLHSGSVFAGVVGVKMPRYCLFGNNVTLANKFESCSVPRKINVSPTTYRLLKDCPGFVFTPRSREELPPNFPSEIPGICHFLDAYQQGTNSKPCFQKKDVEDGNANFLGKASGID
T1 sequence (Q02153 1-619): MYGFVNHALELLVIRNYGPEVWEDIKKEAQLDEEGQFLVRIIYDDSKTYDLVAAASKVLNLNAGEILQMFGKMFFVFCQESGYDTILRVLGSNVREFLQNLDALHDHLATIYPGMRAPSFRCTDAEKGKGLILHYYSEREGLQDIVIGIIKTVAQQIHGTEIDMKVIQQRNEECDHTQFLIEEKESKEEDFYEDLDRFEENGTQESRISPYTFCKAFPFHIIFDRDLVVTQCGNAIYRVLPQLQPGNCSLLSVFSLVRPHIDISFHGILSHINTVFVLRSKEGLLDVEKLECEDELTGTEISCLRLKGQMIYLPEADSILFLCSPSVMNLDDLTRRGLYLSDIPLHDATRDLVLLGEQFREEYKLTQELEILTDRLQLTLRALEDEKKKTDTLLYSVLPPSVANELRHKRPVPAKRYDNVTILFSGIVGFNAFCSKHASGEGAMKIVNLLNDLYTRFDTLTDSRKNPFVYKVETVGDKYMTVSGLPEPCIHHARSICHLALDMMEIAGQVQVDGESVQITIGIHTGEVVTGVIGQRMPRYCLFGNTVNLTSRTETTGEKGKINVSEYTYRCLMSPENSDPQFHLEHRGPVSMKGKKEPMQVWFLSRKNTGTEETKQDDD
Assay: Cell-Based sGC Functional Assay (CASA Assay)
Details: CHO-K1/sGC cells; for EC50: intracellular cGMP by HTRF, 1 hr at 37° C., IP from 4P fit, presence or absence of 1 μM DETA-NO not given; for Emax: cGMP as percentage of maximum cGMP production of Compound A (=100% activation), read-out: % ACT (percent activation)
Text: Biological Assays: Cell-Based sGC Functional Assay (CASA Assay)
sGC is a heme-containing enzyme that converts GTP to secondary messenger cGMP. Increases in cGMP levels affect several physiological processes including vasorelaxation through multiple downstream pathways. […] Heme-dependent activators (HDAs) preferentially activate sGC containing a ferrous heme group. To determine the effect of sGC activators on enzyme activity, the CASA assay was developed to monitor the generation of cGMP in a cell line that stably expresses the heterodimeric sGC protein.
A CHO-K1 cell line stably expressing the sGC α1/β1 heterodimer was generated using a standard transfection protocol. CHO-K1 cells were transfected with plasmids pIREShyghsGCα1 and pIRESneo-hsGCβ1 simultaneously using FUGENE reagent. Clones that stably express both subunits were selected with hygromycin and neomycin for ˜2 weeks. Clone #7 was chosen for the assay and was designated CHO-K1/sGC. CHO-K1/sGC cells were maintained in F-K12 medium containing 10% heat-inactivated Fetal Bovine Serum (FBS), 100 μg/mL penicillin/streptomycin, 0.5 mg/mL hygromycin and 0.25 mg/mL G418. The cells were then cryopreserved in LN2. On the day of the assay, cells were thawed and resuspended in EBSS Assay Buffer (EAB, Sigma, E3024) supplemented with 5 mM MgCl2, 10 mM HEPES (4-(2-hydroxyethyl)piperazine-1-ethanesulfonic acid) and 0.05% BSA (bovine serum albumin) and cell density was then adjusted to 4×10^5/mL with EAB. IBMX (3-isobutyl-1-methylxanthin, 0.5 mM) was added to inhibit degradation of cGMP. Compounds were diluted from DMSO stock solutions and added to the assay at a final DMSO concentration of 2.5%. Cells were incubated with compounds in the presence and absence of 1 μM of Diethylenetriamine/nitric oxide adduct (DETA-NO; Sigma, 17018) for 1 hr at 37° C. At the end of the incubation period, the reaction was terminated and the cells were lysed with the detection reagents from Cisbio Kits. The level of intracellular cGMP was determined using an HTRF-based assay kit (CisBio, 62GM2PEC), which detects the displacement of a fluorescence labeled cGMP from its specific antibody. The cGMP produced by test compounds was directly compared to the maximum cGMP production (this value was set to equal 100% activation) of the published sGC-HDA Compound A:
[drawing 123] (Example 1 in WO 2010/065275, published Jun. 10, 2010). The test compounds' activity was then expressed as a percentage of Compound A, the standard in every experiment. This percent activation was calculated either in the presence or absence of DETA-NO which was then plotted. IP and maximum fold induction was derived using ADA analysis software for 4P fit.

SMILES	EC50 [nM]	Emax [%]
[2H]C([2H])([2H])n1ncc2c(-c3nc(N)c4c(n3)NC(=O)C4(C)c3ccc(O)cc3)nc(CCC(F)(F)C(F)(F)F)nc21 (single isomer, unassigned) [Example 43, 4-Amino-5-(4-hydroxyphenyl)-5-methyl-2-(6-(3,3,4,4,4-pentafluorobutyl)-1-trideuteriomethyl-1H-pyrazolo[3,4-d]pyrimidin-4-yl)-5H-pyrrolo[2,3-d]pyrimidin-6(7H)-one]	209	110
[2H]C([2H])([2H])n1ncc2c(-c3nc(N)c4c(n3)NC(=O)C4(CCCC)C3CC3)nc(CCC(F)(F)C(F)(F)F)nc21 (single isomer, unassigned) [Example 25, 4-Amino-5-butyl-5-cyclopropyl-2-(6-(3,3,4,4,4-pentafluorobutyl)-1-trideuteriomethyl-1H-pyrazolo[3,4-d]pyrimidin-4-yl)-5H-pyrrolo[2,3-d]pyrimidin-6(7H)-one]	49	80
COC1(C)C(=O)Nc2nc(-c3nc(CCC(F)(F)C(F)(F)F)nc4c3cnn4C)nc(N)c21 (single isomer, unassigned) [Example 56, 4-Amino-5-methoxy-5-methyl-2-(1-methyl-6-(3,3,4,4,4-pentafluorobutyl)-1H-pyrazolo[3,4-d]pyrimidin-4-yl)-5H-pyrrolo[2,3-d]pyrimidin-6(7H)-one]	44	104
C#CC1(C2CC2)C(=O)Nc2nc(-c3nc(CCC(F)(F)C(F)(F)F)nc4c3cnn4C)nc(N)c21 (single isomer, unassigned) [Example 24, 4-Amino-5-cyclopropyl-5-ethynyl-2-(1-methyl-6-(3,3,4,4,4-pentafluorobutyl)-1H-pyrazolo[3,4-d]pyrimidin-4-yl)-5H-pyrrolo[2,3-d]pyrimidin-6(7H)-one]	105	120
[2H]C([2H])([2H])n1nnc2c(-c3nc(N)c4c(n3)NC(=O)C4(C)c3ccc(F)c(OC)c3)nc(CCC(F)(F)C(F)(F)F)nc21 (single isomer, unassigned) [Example 72, 4-Amino-5-(4-fluoro-3-methoxyphenyl)-5-methyl-2-(5-(3,3,4,4,4-pentafluorobutyl-3-trideuteriomethyl)-3H-[1,2,3]triazolo[4,5-d]pyrimidin-7-yl)-5H-pyrrolo[2,3-d]pyrimidin-6(7H)-one]	424	66
[2H]C([2H])([2H])n1ncc2c(-c3nc(O)c4c(n3)NC(=O)C4(C)c3ccc(F)cc3)nc(CCC(F)(F)C(F)(F)F)nc21 (centres unmarked) [Example 48, 5-(4-Fluorophenyl)-4-hydroxy-5-methyl-2-(6-(3,3,4,4,4-pentafluorobutyl)-1-trideuteriomethyl-1H-pyrazolo[3,4-d]pyrimidin-4-yl)-5H-pyrrolo[2,3-d]pyrimidin-6(7H)-one]	664	93
Cn1ncc2c(-c3nc(N)c4c(n3)NC(=O)C4(C)NCC3CC3)nc(CCC(F)(F)C(F)(F)F)nc21 (centres unmarked) [Example 54, 4-Amino-5-((cyclopropylmethyl)amino)-5-methyl-2-(1-methyl-6-(3,3,4,4,4-pentafluorobutyl)-1H-pyrazolo[3,4-d]pyrimidin-4-yl)-5H-pyrrolo[2,3-d]pyrimidin-6(7H)-one]	87	118
[2H]C([2H])([2H])n1nc(C2CC2)c2c(-c3nc(N)c4c(n3)NC(=O)C4(C)c3ccc(F)cc3)nc(CCC(F)(F)C(F)(F)F)nc21 (centres unmarked) [Example 59, 4-Amino-2-(3-cyclopropyl-6-(3,3,4,4,4-pentafluorobutyl)-1-trideuteriomethyl-1H-pyrazolo[3,4-d]pyrimidin-4-yl)-5-(4-fluorophenyl)-5-methyl-5H-pyrrolo[2,3-d]pyrimidin-6(7H)-one]	299	94
[2H]C([2H])([2H])n1ncc2c(-c3nc(N)c4c(n3)NC(=O)C4(C(=O)Nc3ccccn3)C3CC3)nc(CCC(F)(F)C(F)(F)F)nc21 (single isomer, unassigned) [Example 41, 4-Amino-5-cyclopropyl-2-(6-(3,3,4,4,4-pentafluorobutyl)-1-trideuteriomethyl-1H-pyrazolo[3,4-d]pyrimidin-4-yl)-6-oxo-N-(pyridin-2-yl)-6,7-dihydro-5H-pyrrolo[2,3-d]pyrimidine-5-carboxamide]	77	100
Cn1ncc2c(-c3nc(N)c4c(n3)NC(=O)C4(C(=O)NC3CC3)C3CC3)nc(CCC(F)(F)C(F)(F)F)nc21 (single isomer, unassigned) [Example 33, 4-Amino-N,5-dicyclopropyl-2-(1-methyl-6-(3,3,4,4,4-pentafluorobutyl)-1H-pyrazolo[3,4-d]pyrimidin-4-yl)-6-oxo-6,7-dihydro-5H-pyrrolo[2,3-d]pyrimidine-5-carboxamide]	53	112
[2H]C([2H])([2H])n1ncc2c(-c3nc(N)c4c(n3)NC(=O)C4(C)C3CC3)nc(CCC(F)(F)C(F)(F)F)nc21 (single isomer, unassigned) [Example 17, 4-Amino-5-cyclopropyl-5-methyl-2-(6-(3,3,4,4,4-pentafluorobutyl)-1-trideuteriomethyl-1H-pyrazolo[3,4-d]pyrimidin-4-yl)-5H-pyrrolo[2,3-d]pyrimidin-6(7H)-one]	286	104
Cn1ncc2c(-c3nc(N)c4c(n3)NC(=O)C4(C)NC(=O)C3CC3)nc(CCC(F)(F)C(F)(F)F)nc21 (centres unmarked) [Example 53, N-(4-Amino-5-methyl-2-(1-methyl-6-(3,3,4,4,4-pentafluorobutyl)-1H-pyrazolo[3,4-d]pyrimidin-4-yl)-6-oxo-6,7-dihydro-5H-pyrrolo[2,3-d]pyrimidin-5-yl)cyclopropanecarboxamide]	869	104
Cn1ncc2c(-c3nc(N)c4c(n3)NC(=O)C4(C)N)nc(CCC(F)(F)C(F)(F)F)nc21 (single isomer, unassigned) [Example 50, 4,5-Diamino-5-methyl-2-(1-methyl-6-(3,3,4,4,4-pentafluorobutyl)-1H-pyrazolo[3,4-d]pyrimidin-4-yl)-5H-pyrrolo[2,3-d]pyrimidin-6(7H)-one]	1240	101
